Data: publication PMC8333425, “Discovery of a dual Ras and ARF6 inhibitor from a GPCR endocytosis screen” (Nature Communications, 2021)

Molecular target: T1, K-Ras-Y32A (Homo sapiens, UniProt P01116, Y32A)
T1 construct: GST (N); FLAG (N); host or cells: E. coli BL21
Experiment: In vitro mant-GTP exchange assay, purified K-Ras-Y32A with SOS1
Format: biochemical
Conditions: 50 μM
Method: Ras activity was assessed in a 384-well black bottom plate using the mant-GTP exchange factor assay that measures the uptake of the fluorescent nucleotide analog N-methylanthraniloyl-GTP (mant-GTP) into GTPases. For Ras activation, 2X exchange buffer, 1.66 μg of purified pGEX-6P-1-H-Ras or pGEX-6P-1-K-Ras-WT or pGEX-6P-1-K-Ras-Y32A were added per well in presence of DMSO, different concentrations of Rasarfin (as indicated) or 50 µM of compounds 21.4, 21.7, or 21.8. Using the Infinite 200 Pro plate reader (Tecan) with filters set at 360 nm and 440 nm for detecting the excitation and emissions, respectively, and temperature set at 20 °C, 5 readings were recorded every 5 s before the addition of either H2O, 40 mM EDTA or 0.66 μg purified SOS1. The fluorescence of mant-GTP uptake was measured every 30 sec for 30 min and quantified as the delta relative fluorescence units (RFU), which was calculated as the RFU post-addition minus the 5 averaged RFU pre-addition, per condition.

T1 sequence (P01116 1-188 isoform P01116-2 Y32A): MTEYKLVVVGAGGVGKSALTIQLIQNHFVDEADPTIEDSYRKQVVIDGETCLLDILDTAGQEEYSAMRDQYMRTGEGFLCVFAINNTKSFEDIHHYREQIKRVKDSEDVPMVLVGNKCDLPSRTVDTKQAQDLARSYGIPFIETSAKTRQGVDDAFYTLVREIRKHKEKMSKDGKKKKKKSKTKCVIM

CC(C)C(=O)N1CCN(c2ccc(NC(=O)c3cc4ccccc4o3)cc2Cl)CC1 [Compound 21]
SOS-mediated mant-GTP binding onto purified K-Ras-Y32A: but not on K-Ras-Y32A
